Values joined by “and” are separate entries in the source; they are usually repeats but may differ in a detail not shown here. Equal values may be shown once. “Also recorded” adds a separate entry of the source.

The target of data set [1] is mutant guanylate cyclase C GC-C S840I (p.Ser840Ile), transiently expressed in HEK293T cells (human). Nature of the data set: cell-based or functional assay.
Data set [2] has as its system familial diarrhea syndrome patients. The data set is described as follows: Metformin treatment trial (II), pilot study with increasing metformin doses. Format: in vivo, human. Conditions: four of five individuals. As to the method:
The dose given in the first metformin treatment trial (Table 2) was modest, and another pilot study with increasing metformin doses was started, including five individuals with high stool frequencies (22-42 per week). Patients with a history of ileus or inflammatory bowel disease were not included. Stool frequency was recorded continously for eight weeks. At day 1 of each week, blood samples were drawn for control of s-glucose, hemoglobin and creatinine. Symptoms and potential side-effects were followed closely by a weekly telephone call from the gastroenterologist.
The patients were without medication in week 1, and then the dose of metformin was increased each week as shown by the horizontal bars, starting at the beginning of week 2 and stopping by the end of week 5. Patient identifiers are listed in bold red letters in the panels.

Data set [3] shares this test system. The data set is described as follows: Metformin treatment trial (I), pilot study in patients. Format: in vivo, human. As to the method:
A pilot study (I) with metformin was performed in six individuals from branch A, with a low peroral dose of 500 mg twice daily. The trial lasted 10 weeks, and the patients registered number of stools (and texture) during week 1, 5 and 10. The first week was without treatment and the patients received 500 mg x 2 during weeks 2- 5. Weeks 6 - 10 were without treatment. […] Number of stools per week was reduced by 40% in two patients with high stool frequency (35-36 per week). Three patients reported that stools were firmer during treatment.

The mark [4] stands for this setting: peroral 500 mg twice daily during weeks 2-5.

For “uroguanylin peptide (from UniProt Q16661 97-112)”, the EC50 of uroguanylin for cGMP production, relative to the WT receptor (fold lower than WT) in data set [1] was 6.

Regarding `CN(C)C(=N)NC(=N)N` [metformin, 1,1-dimethylbiguanide], in data set [2] (weeks 2-5), the “dose-response effect on number of stools” value was “clear dose-response effect; also recorded: significant dose-response effect” and the “reduction in weekly average stools/day” value is 30-40%. In addition, the “maximal reduction of number of stools” value in data set [2] (weeks 2-5 (Fig. 4)) is recorded as 30-40%. For the same compound, in data set [3] (setting [4]), the Side effects entry is “Intermittent nausea and None (4×) and Increased bloating”; the “Week 5 Stool firmness” value is “Increased”. Also, the “Week 5 Stools per week” value in data set [3] (peroral 500 mg twice daily during weeks 2-5, week 1 (baseline) and weeks 6-10 without treatment) was 13 (2×) and 18 and 20 (2×) and 22. In addition, the “stools during treatment (patient-reported firmness)” value in data set [3] (three of six patients, 500 mg twice daily) is given as “firmer”. The “Number of stools per week was reduced by” value in data set [3] (two patients with high stool frequency (35-36 per week), 500 mg twice daily) amounted to 40%.
